The results in this text go back to patent US12024507B2, “Compounds as GLP-1R agonists” (Terns Pharmaceuticals, Inc., priority 2021, dated 2024).

Series [1] is described as follows: Metabolic stability in human hepatocytes. In kind it is in vitro ADME. The settings on record: cryopreserved hepatocytes, 1×10^6 cells/mL; for CLint scaled at 1 μM: intrinsic clearance; for half-life at 1 μM: read-out: Human T1/2. As for the experimental part:
(§1) Test compounds were incubated in rat and human hepatocytes and stability was assessed from the substrate […] approach. Test compounds were dissolved in dimethyl sulfoxide (DMSO) to create a 10 mM Stock, and then further diluted to create a 1000×Working Stock of 1 mM with DMSO in 96-well plates for test compounds and the positive control (midazolam). Vials containing cryopreserved hepatocytes were removed from the liquid nitrogen tank and immediately immersed in a 37° C. water bath. The vials were shaken gently until the contents had thawed and were then immediately emptied into 48 mL of pre-warmed HT Medium in a 50 mL conical tube. Cells remaining in the vial were resuspended with 1.0 mL of pre-warmed HT Medium and added to the conical tube. The tube was capped and then gently inverted several times to resuspend the hepatocytes. The cell suspension was centrifuged at 50×g at room temperature for 5 minutes and the supernatant discarded. The cell pellet was loosened by gently swirling the centrifuge tube and was re-suspended in 4 mL of warm Dulbecco's Modified Eagle medium (DMEM). Cell density was determined by a cell counter by Nexcelom, and DMEM medium was added to obtain a target density of 1×10^6 cells/mL. The assay was carried out in 96-well microtiter plates. Test Compounds were incubated at 1 μM with 1×10^6 cells/mL hepatocytes in DMEM for 0, 30, 60, 120 and 240 minutes. The incubation was carried out with gentle shaking at 37° C. under a humid atmosphere of 95% air/5% CO2. The volume of the incubation mixture was 37 μL with a final 0.1% DMSO. At each of the time points, the incubation was stopped by adding 150 μL quenching solution (100% acetonitrile, 0.1% formic acid containing bucetin as an internal standard for positive ESI mode). Subsequently, the mixtures were vortexed for 20 min and centrifuged at 4,000 RPM at 10° C. The supernatant (80 μL) was transferred to a clean 96-well plate and analyzed by LC-MS/MS. Midazolam at 1 μM with a final 0.1% DMSO was included as a positive control to verify assay performance. The percent parent remaining, intrinsic and predicted hepatic clearance and t1/2 were calculated. All samples were analyzed by LC-MS/MS using an AB Sciex API 4000 instrument, coupled to a Shimadzu LC-20AD LC Pump system. Separation was achieved using a Waters Atlantis T3 dC18 reverse phase HPLC column (20 mm×2.1 mm) at a flow rate of 0.5 mL/min. The mobile phase consisted of 0.1% formic acid in water (solvent A) and 0.1% formic acid in 100% acetonitrile (solvent B). Elution conditions are detailed below.
(§2) The ion optics of each test compound were optimized for their declustering potential (DP), […] (CE), collision-cell exit potential (CXP) and used in a selected ion monitoring experiment in the positive ion mode. The peak area ratio of each test compound to internal standard was then evaluated for stability. The extent of metabolism was calculated based on the disappearance of the test compound, compared to its initial concentration. The initial rates of clearance of the test compound were calculated using the linear regression plot of semi-log % remaining of the compound versus time.
(§3) The predicted hepatic clearance (CLhep) was calculated using the well stirred method with the following formula with CLint(in vivo) normalized based on liver weight: CLint(in vivo)=CLint×Hepatocellularity×liver weight CLhep predicted=(CLint(in vivo)×Qliver)/(CLint(in vivo)+Qliver) Where Qliver ((ml/min/kg) is Liver Blood Flow
(§4) The relevant physiological parameters of liver weight, blood flow, and hepatocellularity for various species are listed below:
(§5) Results are presented in the Table B3 below for the intrinsic clearance (mL/min/kg) and half-life (t1/2).

A short description of series [2]: Metabolic stability in rat hepatocytes. In kind it is in vitro ADME. The settings on record: cryopreserved hepatocytes, 1×10^6 cells/mL; for CLint scaled at 1 μM: intrinsic clearance; for half-life at 1 μM: read-out: Rat T1/2. The procedure: as §1, §2, §3, §4, §5

In general, CLint scaled refers to the rate of metabolic loss divided by the concentration. Higher therefore signals rapid turnover. `N#Cc1ccc(COc2cccc(C3CCN(Cc4nc5ccc(-c6nnn[nH]6)cc5n4C[C@@H]4CCO4)CC3)n2)c(F)c1` [Compound 8]: in series [1], the CLint scaled at 1 μM was found to be 7.99 ± 0.99 mL/min/kg and the half-life at 1 μM is 5.02 ± 0.623 h. Besides, in series [2], the intrinsic metabolic clearance (CLint scaled) at 1 μM is 46.5 ± 2.11 mL/min/kg and the half-life at 1 μM was found to be 1.19 ± 0.054 h.
Take `N#Cc1ccc(COc2cccc(C3CCN(Cc4nc5ccc(-c6nc(=O)[nH]o6)cc5n4Cc4cncs4)CC3)n2)c(F)c1` [Compound 13, 3-fluoro-4-(((6-(1-((6-(3-oxo-2,3-dihydro-1,2,4-oxadiazol-5-yl)-1-(thiazol-5-ylmethyl)-1H-benzo[d]imidazol-2-yl)methyl)piperidin-4-yl)pyridin-2-yl)oxy)methyl)benzonitrile]: the intrinsic metabolic clearance (CLint scaled) at 1 μM in series [1] worked out at 35.8 ± 1.06 mL/min/kg; in series [2], 111 ± 2.29 mL/min/kg. Further, the half-life at 1 μM stood at 1.12 ± 0.0332 h in series [1] and 0.501 ± 0.0103 h in series [2].
